According to US7056734B1, “Differentiation of non-insulin producing cells into insulin producing cells by GLP-1 or exendin-4 and uses thereof” (The United States of America as represented by the …, priority 1998, dated 2006):

Columns and labels:
[1] = tested on: Wistar rats; test: Acute intravenous GLP-1 bolus, plasma insulin response in young and old rats; format: in vivo, rat; conditions: 0.2 nmol/kg iv bolus; for maximal insulin response: 2 min after completion of the bolus
Description: Protocols. To insure that old animals were capable of responding to GLP-1, we carried out an acute experiment with an intravenous bolus of GLP-1. Six old (22 months) and 6 young (3 months) Wistar rats were fasted overnight. Following anesthesia with 50 mg/kg pentobarbital, a catheter was placed in the femoral artery for blood sampling, and a bolus of GLP-1 (0.2 nmol/kg) was given into the saphenous vein over 30 sec. Blood (taken at 2, 4, 7, and 10 min) was collected for insulin determination.

[2] = tested on: rat acinar cells; conditions: Malhotra et al. 1992, cited from earlier work

Compound | maximal insulin response ([1]; old (22 month) fasted rats) | maximal insulin response ([1]; young (3 month) fasted rats) | time at which insulin levels had returned to baseline ([1]; young and old rats) | total amylase released ([2]; CCK alone vs 10^−8 M exendin-4 and CCK together) | concentration at which increased cAMP was seen [2]
CC[C@H](C)[C@H](NC(=O)[C@H](Cc1ccccc1)NC(=O)[C@H](CCC(=O)O)NC(=O)[C@H](CCCCN)NC(=O)[C@H](C)NC(=O)[C@H](C)NC(=O)[C@H](CCC(N)=O)NC(=O)CNC(=O)[C@H](CCC(=O)O)NC(=O)[C@H](CC(C)C)NC(=O)[C@H](Cc1ccc(O)cc1)NC(=O)[C@H](CO)NC(=O)[C@H](CO)NC(=O)[C@@H](NC(=O)[C@H](CC(=O)O)NC(=O)[C@H](CO)NC(=O)[C@@H](NC(=O)[C@H](Cc1ccccc1)NC(=O)[C@@H](NC(=O)CNC(=O)[C@H](CCC(=O)O)NC(=O)[C@H](C)NC(=O)[C@@H](N)Cc1c[nH]cn1)[C@@H](C)O)[C@@H](C)O)C(C)C)C(=O)N[C@@H](C)C(=O)N[C@@H](Cc1c[nH]c2ccccc12)C(=O)N[C@@H](CC(C)C)C(=O)N[C@H](C(=O)N[C@@H](CCCCN)C(=O)NCC(=O)N[C@@H](CCCNC(=N)N)C(N)=O)C(C)C [GLP-1] | 347.7 ± 25.7 pmol/L | 373.3±43.7 pmol/1 | 10 min |  | 
exendin-4 |  |  |  | 16% | 10^−8 M
